{
  "source": "patent US9877998B2",
  "about": "“Uses of hypoxia-inducible factor inhibitors” (OncoImmune, Inc., priority 2009, dated 2018)",
  "key": {"[1]": {"tested_on": "lymphoma CSC (c-Kit+Sca-1+ TGB lymphoma cells)", "test": "Colony formation (CFU) assay of TGB lymphoma cells in 1% methylcellulose medium", "type": "cell-based, mouse", "details": "for effect on lymphoma CFU (colony number): cultured lymphoma cells treated 24 hours with pharmacologically effective doses (echinomycin: low doses), drugs washed away", "description": "FIG. 2. HIF addiction of CSC. a. Selective ablation of lymphoma CFU by echinomycin. The cultured lymphoma cells were treated with given doses of pharmacologically effective drugs in medium for 24 hours. After washing away the drugs, the cells were cultured in 1% methylcellulose-containing medium, and the colony number was counted after 6 to 7 days. Data shown are means and SD of triplicates and have been confirmed by 3 independent experiments. b. A reporter system for HIF activity in the TGB lymphoma. Diagram of lentiviral construct for HIF activity is shown on the top. Pause, a sequence fragment to eliminate the effect of lentiviral promoter; HRE, Hypoxia response element (SEQ ID NO: 20); TATA, TATA sequence (TATATAAT) (top). Lower left, validation of the reporter. HEK293 cells were transiently transfected with cDNA encoding mutant HIF1α (P402A/P577A) or vector control in conjunction with either HRE-driven EGFP reporter, HRE mutant reporter (SEQ ID NO: 21). The cells were analyzed by flow cytometry to detect EGFP expression 36 hours after transduction. […] IC50 of echinomycin in the inhibition of HIF1α activity in lymphoma CSC. The lymphoma cells transfected with the HRE reporter system were cultured in the presence of different concentration of echinomycin for 12 hours, the % of c-Kit^+GFP^+ cells was normalized against the untreated group (1.13%, which was defined as 100%). […] Selectivity of HIF inhibitor for CFU of lymphoma CSC over the CFU from hematopoietic progenitor cells. c-Kit^+Sca-1^+ cells from either TGB or normal bone marrow were treated with given concentration of echinomycin overnight prior to plating in the medium containing 1% methylcellulose for CFU assay. The data shown were % of untreated controls, and were means+/−S.D. of triplicates. e. Therapeutic effect of a low dose of echinomycin. Cultured lymphoma cells (1×10^6/mouse) were injected i.p. into immune competent B10.BR mice. Fourteen days later, 10 μg/Kg/Injection of echimomycin was injected at a two-day interval for a total of 5 times. Control mice received vehicle only. The mice were observed daily for survival.\nFIG. 6. HIF works in concert with Notch pathway to maintain CSC. a. Inhibition of colony-forming activity of CSC. The cultured lymphoma cells were treated with given doses of L685, 458 for 24 hours. After that, the cells were cultured in 1% methylcellulose-containing medium, and the colony number was counted after 6 to 7 days. Data shown are means+/−SD of triplicate samples and are representative of those of at least 3 independent experiments. b. Enhanced Notch activity in CSC, as indicated by the levels of Hes1 transcripts. The lymphoma cells from spleen with tumor in TGB transgenic mouse were sorted into c-kit^+Sca-1^+ or c-kit^−Sca-1^− fractions. The expressions of Hes1αnd mRNA in these two fractions were measured by real time PCR. c. Inhibition of Notch activity by 3 distinct HIF inhibitors. Cultured TGB lymphoma cells were stained with APC conjugated anti-c-Kit-antibody and enriched twice using anti-APC coated MACS beads according to manufacturer's protocol (Militenyi Biotec). The c-kit positive cells-enriched samples (60.4% c-Kit^+ cells) were treated with inhibitors of HIF for 16 hours. The mRNA from the treated cells were extracted for quantitation by real-time PCR. Data shown are means+/−SD of triplicates and represent those from at least 3 independent experiments. 2ME2, 2-methoxyestradiol; GA, geldamycin. d-g. […] A truncated Notch gene with potent dominant negative activity in inhibiting the expression of Notch target gene Hes. […] The right panel show dominant inhibition of Hes expression. After three consecutive transductions by either vector control or the dRdA1-4dOP mutant, the RNA were isolated and the transcripts of Hes measured by quantitative PCR. Data shown are means of triplicates and have been reproduced by two independent experiments. e. Notch I-C deltaRAM abrogates the c-Kit^+Sca-1^+ subset. […]"}, "[2]": {"tested_on": "TGB lymphoma", "test": "In vivo tumorigenicity / therapy of transplanted TGB lymphoma in B10.BR mice (survival)", "details": "9×10^5 lymphoma cells i.p., 5 injections at two day interval from day 8; less efficacy than echinomycin (FIG. 12b)", "description": "FIG. 2. HIF addiction of CSC. a. Selective ablation of lymphoma CFU by echinomycin. The cultured lymphoma cells were treated with given doses of pharmacologically effective drugs in medium for 24 hours. After washing away the drugs, the cells were cultured in 1% methylcellulose-containing medium, and the colony number was counted after 6 to 7 days. Data shown are means and SD of triplicates and have been confirmed by 3 independent experiments. b. A reporter system for HIF activity in the TGB lymphoma. Diagram of lentiviral construct for HIF activity is shown on the top. Pause, a sequence fragment to eliminate the effect of lentiviral promoter; HRE, Hypoxia response element (SEQ ID NO: 20); TATA, TATA sequence (TATATAAT) (top). Lower left, validation of the reporter. HEK293 cells were transiently transfected with cDNA encoding mutant HIF1α (P402A/P577A) or vector control in conjunction with either HRE-driven EGFP reporter, HRE mutant reporter (SEQ ID NO: 21). The cells were analyzed by flow cytometry to detect EGFP expression 36 hours after transduction. […] IC50 of echinomycin in the inhibition of HIF1α activity in lymphoma CSC. […]\nGiven numbers of total tumor cells or sorted subsets were injected into either immune competent B10.BR mice or RAG-2^−/−BALB/c mice. […] The therapeutic effects were analyzed by Kaplan Meier survival analysis."}, "[3]": {"tested_on": "lymphoma CSC (c-Kit+Sca-1+ TGB lymphoma cells)", "test": "Colony formation (CFU) assay of TGB lymphoma cells in 1% methylcellulose medium", "type": "cell-based, mouse", "details": "first and second rounds of sorted cells, 1000/well, drug 24 hours, colonies counted after 5 days"}, "[4]": {"details": "colonies counted after 6 to 7 days"}},
  "data": [
    {"smiles": "OCC1OC(O)CC(O)C1O", "note": "(stereo not shown) [2-DG]", "values": [
      {"measurement": "effect on lymphoma CFU (colony number)", "setting": "[1]; [4]", "value": "no effect"}
    ]},
    {"smiles": "COc1cccc(-c2cc(=O)c3ccccc3o2)c1N", "note": "[PD98059]", "values": [
      {"measurement": "effect on lymphoma CFU (colony number)", "setting": "[1]; [4]", "value": "no effect"}
    ]},
    {"smiles": "COc1cc2c(cc1O)CC[C@@H]1[C@@H]2CC[C@]2(C)[C@@H](O)CC[C@@H]12", "note": "[2-methoxyestradiol]", "values": [
      {"measurement": "CFU of CSC", "setting": "[1]; less efficacy than echinomycin (FIG. 12a)", "value": "reduced"},
      {"measurement": "tumor initiation of CSC", "setting": "[2]", "value": "reduced"},
      {"measurement": "inhibition of colony formation of sorted c-Kit+Sca-1+ tumor cells", "setting": "[3]", "value": "Inhibition"}
    ]},
    {"smiles": "C[S+]([O-])c1ccc(-c2nc(-c3ccncc3)c(-c3ccc(F)cc3)[nH]2)cc1", "note": "(stereo not shown) [SB203580]", "values": [
      {"measurement": "effect on lymphoma CFU (colony number)", "setting": "[1]; [4]", "value": "no effect"}
    ]},
    {"smiles": "CC(C)C[C@H](NC(=O)[C@H](Cc1ccccc1)C[C@@H](O)[C@H](Cc1ccccc1)NC(=O)OC(C)(C)C)C(=O)N[C@@H](Cc1ccccc1)C(N)=O", "note": "[L-685, 458]", "values": [
      {"measurement": "colony forming activity of lymphoma CSC", "setting": "[1]; given doses for 24 hours, colonies counted after 6 to 7 days", "value": "potently blocked"}
    ]},
    {"smiles": "S=C(S)N1CCCC1", "note": "[PDTC]", "values": [
      {"measurement": "effect on lymphoma CFU (colony number)", "setting": "[1]; [4]", "value": "no effect"}
    ]},
    {"smiles": "COc1ccc2c(c1)c(C1=C(c3c[nH]c4ccccc34)C(=O)NC1=O)cn2CCCN(C)C", "note": "[Gö6983]", "values": [
      {"measurement": "effect on lymphoma CFU (colony number)", "setting": "[1]; [4]", "value": "no effect"}
    ]},
    {"smiles": "O=S(=O)(NCCNC/C=C/c1ccc(Br)cc1)c1cccc2cnccc12", "note": "[H89]", "values": [
      {"measurement": "effect on lymphoma CFU (colony number)", "setting": "[1]; [4]", "value": "no effect"}
    ]},
    {"smiles": "Cn1cc(C2=C(c3ccc(Cl)cc3Cl)C(=O)NC2=O)c2ccccc21", "note": "[SB216763]", "values": [
      {"measurement": "effect on lymphoma CFU (colony number)", "setting": "[1]; [4]", "value": "no effect"}
    ]},
    {"smiles": "O=c1cc(N2CCOCC2)oc2c(-c3ccccc3)cccc12", "note": "[Ly294002]", "values": [
      {"measurement": "effect on lymphoma CFU (colony number)", "setting": "[1]; [4]", "value": "no effect"}
    ]},
    {"smiles": "CO[C@H]1C[C@@H]2CC[C@@H](C)[C@@](O)(O2)C(=O)C(=O)N2CCCC[C@H]2C(=O)O[C@H]([C@H](C)C[C@@H]2CC[C@@H](O)[C@H](OC)C2)CC(=O)[C@H](C)/C=C(\\C)[C@@H](O)[C@@H](OC)C(=O)[C@H](C)C[C@H](C)/C=C/C=C/C=C/1C", "note": "[Rapamycin]", "values": [
      {"measurement": "effect on lymphoma CFU (colony number)", "setting": "[1]; [4]", "value": "no effect"}
    ]}
  ]
}
